Source: patent US11242337B2, “Compounds useful for treating gastrointestinal tract disorders” (Ardelyx, Inc., priority 2017, dated 2022)

Experiments:
NHE3 [1] = target: T1, NHE3 (Homo sapiens, UniProt P48764); experiment: Cell-based assay of NHE-3 activity (pre-incubation inhibition), human; conditions: human Preincubation; for pIC50: 0-30 μM test compound
T1 construct: expressed in transfected cells
T1 sequence (P48764 26-834): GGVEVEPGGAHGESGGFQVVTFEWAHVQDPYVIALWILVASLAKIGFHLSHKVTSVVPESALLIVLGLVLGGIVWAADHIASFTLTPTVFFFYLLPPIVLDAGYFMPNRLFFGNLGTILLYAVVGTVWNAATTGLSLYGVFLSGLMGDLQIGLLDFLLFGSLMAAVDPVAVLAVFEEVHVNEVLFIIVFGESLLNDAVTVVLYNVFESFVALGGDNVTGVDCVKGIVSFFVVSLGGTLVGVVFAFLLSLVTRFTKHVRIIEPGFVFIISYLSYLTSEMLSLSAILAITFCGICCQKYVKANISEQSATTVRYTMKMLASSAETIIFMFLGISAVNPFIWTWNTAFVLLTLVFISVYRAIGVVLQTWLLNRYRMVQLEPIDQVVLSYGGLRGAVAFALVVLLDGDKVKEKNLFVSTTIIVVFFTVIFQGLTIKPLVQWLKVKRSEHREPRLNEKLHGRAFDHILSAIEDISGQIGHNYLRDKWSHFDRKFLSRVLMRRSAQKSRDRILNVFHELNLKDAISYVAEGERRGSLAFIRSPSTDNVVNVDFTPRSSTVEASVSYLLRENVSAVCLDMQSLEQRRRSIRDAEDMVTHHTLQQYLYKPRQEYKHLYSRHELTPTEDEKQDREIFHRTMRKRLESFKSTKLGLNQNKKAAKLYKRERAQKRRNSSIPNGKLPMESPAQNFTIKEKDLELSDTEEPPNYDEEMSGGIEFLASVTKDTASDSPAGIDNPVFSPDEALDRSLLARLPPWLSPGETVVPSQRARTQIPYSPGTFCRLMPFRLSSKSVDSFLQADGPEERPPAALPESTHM
T1 sequence (Q99653 2-195 partner limits assumed): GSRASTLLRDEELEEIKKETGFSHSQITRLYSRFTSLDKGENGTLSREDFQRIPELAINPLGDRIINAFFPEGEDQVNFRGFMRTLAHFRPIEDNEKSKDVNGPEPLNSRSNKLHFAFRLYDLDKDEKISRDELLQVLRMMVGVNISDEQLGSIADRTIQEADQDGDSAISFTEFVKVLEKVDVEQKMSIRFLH
Summary of the method: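 PS120 fibroblasts stably expressing human NHE3 and NHERF2, loaded 30 min at 37 °C with 5 μM BCECF-AM in NH4Cl buffer, then acidified 10 min at room temperature in Na+-free buffer with 0–30 μM compound. Initial rate of BCECF fluorescence ratio change (FLIPR) per minute taken as Na+/H+ activity.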

NHE3 [2] = target: T1, NHE3; experiment: Cell-based assay of NHE-3 activity (persistent inhibition), human; conditions: human Persistence, 60 min incubation then washout
Summary of the method: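 PS120 fibroblasts expressing human NHE3 with NHERF2 exposed to 0-30 μM compound for 60 min at RT, then washed out; cells acid-loaded by NH4Cl prepulse with BCECF-AM and Na+-free buffer. Na+-driven pH recovery started 10 min post-washout; initial rate of BCECF ratio change (FLIPR) taken as activity.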

| % inhibition (NHE3 [1]) | pIC50 (NHE3 [1]) | % inhibition (NHE3 [2]) | pIC50 (NHE3 [2]) | SMILES |
| --- | --- | --- | --- | --- |
| C (>70%) | C (NHE3 pIC50 > 7) | C (>70%) | C (NHE3 pIC50 > 7) | Cc1cc(S(=O)(=O)NCCOCCOCCNC(=O)NCCCCNC(=O)NCCOCCOCCNS(=O)(=O)c2ccc(O[C@H]3c4cc(Cl)cc(Cl)c4C[C@@H]3N3CCNCC3)c(C)c2)ccc1O[C@H]1c2cc(Cl)cc(Cl)c2C[C@@H]1N1CCNCC1 [Example 32, 3-[2-(2-[2-[(4-[[(1S,2S)-4,6-Dichloro-2-(piperazin-1-yl)-2,3-dihydro-1H-inden-1-yl]oxy]-3-methylbenzene)sulfonamido]ethoxy]ethoxy)ethyl]-1-[4-([[2-(2-[2-[(4-[[(1S,2S)-4,6-dichloro-2-(piperazin-1-yl)-2,3-dihydro-1H-inden-1-yl]oxy]-3-methylbenzene)sulfonamido]ethoxy]ethoxy)ethyl]carbamoyl]amino)butyl]urea; bis(trifluoroacetic acid)] |
| C (>70%) | – | C (>70%) | – | O=C(NCCCCNC(=O)NCCOCCOCCNS(=O)(=O)c1ccc(O[C@H]2c3cc(Cl)cc(Cl)c3C[C@@H]2N2CCNCC2)c(F)c1)NCCOCCOCCNS(=O)(=O)c1ccc(O[C@H]2c3cc(Cl)cc(Cl)c3C[C@@H]2N2CCNCC2)c(F)c1 [Example 33, 3-[2-(2-[2-[(4-[[(1S,2S)-4,6-Dichloro-2-(piperazin-1-yl)-2,3-dihydro-1H-inden-1-yl]oxy]-3-fluorobenzene)sulfonamido]ethoxy]ethoxy)ethyl]-1-[4-[[(2-(2-[2-[(4-[[(1S,2S)-4,6-dichloro-2-(piperazin-1-yl)-2,3-dihydro-1H-inden-1-y]oxy]-3-fluorobenzene)sulfonamido]ethoxy]ethoxy)ethyl]carbamoyl]amino)butyl]urea; bis(trifluoroacetic acid)] |
| C (>70%) | – | C (>70%) | – | Cc1cc(Cl)cc2c1C[C@H](N1CCNCC1)[C@H]2Oc1ccc(S(=O)(=O)NCCOCCOCCNC(=O)NCCCCNC(=O)NCCOCCOCCNS(=O)(=O)c2ccc(O[C@H]3c4cc(Cl)cc(C)c4C[C@@H]3N3CCNCC3)cc2)cc1 [Example 34, 3-[2-(2-[2-[(4-[[(1S,2S)-6-Chloro-4-methyl-2-(piperazin-1-yl)-2,3-dihydro-1H-inden-1-yl]oxy]benzene)sulfonamido]ethoxy]ethoxy)ethyl]-1-[4-([[2-(2-[2-[(4-[[(1S,2S)-6-chloro-4-methyl-2-(piperazin-1-yl)-2,3-dihydro-1H-inden-1-yl]oxy]benzene)sulfonamido]ethoxy]ethyl)ethyl]carbamoyl]amino)butyl]urea; bis(trifluoroacetic acid)] |
| C (>70%) | C (NHE3 pIC50 > 7) | C (>70%) | C (NHE3 pIC50 > 7) | Cc1cc(S(=O)(=O)NCCOCCOCCNC(=O)NCCCCNC(=O)NCCOCCOCCNS(=O)(=O)c2ccc(O[C@H]3c4cc(Cl)cc(C)c4C[C@@H]3N3CCNCC3)c(C)c2)ccc1O[C@H]1c2cc(Cl)cc(C)c2C[C@@H]1N1CCNCC1 [Example 35, 3-[2-(2-[2-[(4-[[(1S,2S)-6-Chloro-4-methyl-2-(piperazin-1-yl)-2,3-dihydro-1H-inden-1-yl]oxy]-3-methylbenzene)sulfonamido]ethoxy]ethoxy)ethyl]-1-[4-([[2-(2-[2-[(4-[[(1S,2S)-6-chloro-4-methyl-2-(piperazin-1-yl)-2,3-dihydro-1H-inden-1-yl]oxy]-3-methylbenzene)sulfonamido]ethoxy]ethoxy)ethyl]carbamoyl]amino)butyl]urea; bis(trifluoroacetic acid)] |
| C (>70%) | C (NHE3 pIC50 > 7) | C (>70%) | C (NHE3 pIC50 > 7) | Cc1cc(Cl)cc2c1C[C@H](N1CCNCC1)[C@H]2Oc1ccc(S(=O)(=O)NCCOCCOCCNC(=O)NCCCCNC(=O)NCCOCCOCCNS(=O)(=O)c2ccc(O[C@H]3c4cc(Cl)cc(C)c4C[C@@H]3N3CCNCC3)c(F)c2)cc1F [Example 36, 3-[2-(2-[2-[(4-[[(1S,2S)-6-Chloro-4-methyl-2-(piperazin-1-yl)-2,3-dihydro-1H-inden-1-yl]oxy]-3-fluorobenzene)sulfonamido]ethoxy]ethoxy)ethyl]-1-[4-([[2-(2-[2-[(4-[[(1S,2S)-6-chloro-4-methyl-2-(piperazin-1-yl)-2,3-dihydro-1H-inden-1-yl]oxy]-3-fluorobenzene)sulfonamido]ethoxy]ethoxy)ethyl]carbamoyl]amino)butyl]urea; bis(trifluoroacetic acid)] |
| C (>70%) | C (NHE3 pIC50 > 7) | C (>70%) | C (NHE3 pIC50 > 7) | N#Cc1cc(Cl)cc2c1C[C@H](N1CCNCC1)[C@H]2Oc1ccc(S(=O)(=O)NCCOCCOCCNC(=O)NCCCCNC(=O)NCCOCCOCCNS(=O)(=O)c2ccc(O[C@H]3c4cc(Cl)cc(C#N)c4C[C@@H]3N3CCNCC3)cc2)cc1 [Example 41, 3-[2-(2-[2-[(4-[[(1S,2S)-6-Chloro-4-cyano-2-(piperazin-1-yl)-2,3-dihydro-1H-inden-1-yl]oxy]benzene)sulfonamido]ethoxy]ethoxy)ethyl]-1-[4-([[2-(2-[2-[(4-[[(1S,2S)-6-chloro-4-cyano-2-(piperazin-1-yl)-2,3-dihydro-1H-inden-1-yl]oxy]benzene)sulfonamido]ethoxy]ethoxy)ethyl]carbamoyl]amino)butyl]urea; bis(trifluoroacetic acid)] |
| C (>70%) | C (NHE3 pIC50 > 7) | C (>70%) | C (NHE3 pIC50 > 7) | Cc1cc(S(=O)(=O)NCCOCCOCCNC(=O)NCCCCNC(=O)NCCOCCOCCNS(=O)(=O)c2ccc(O[C@H]3c4cc(Cl)cc(C#N)c4C[C@@H]3N3CCNCC3)c(C)c2)ccc1O[C@H]1c2cc(Cl)cc(C#N)c2C[C@@H]1N1CCNCC1 [Example 42, 3-[2-(2-[2-[(4-[[(1S,2S)-6-Chloro-4-cyano-2-(piperazin-1-yl)-2,3-dihydro-1H-inden-1-yl]oxy]-3-methylbenzene)sulfonamido]ethoxy]ethoxy)ethyl]-1-[4-([[2-(2-[2-[(4-[[(1S,2S)-6-chloro-4-cyano-2-(piperazin-1-yl)-2,3-dihydro-1H-inden-1-yl]oxy]-3-methylbenzene)sulfonamido]ethoxy]ethoxy)ethyl]carbamoyl]amino)butyl]urea; bis(trifluoroacetic acid)] |
| C (>70%) | C (NHE3 pIC50 > 7) | C (>70%) | C (NHE3 pIC50 > 7) | N#Cc1cc(Cl)cc2c1C[C@H](N1CCNCC1)[C@H]2Oc1ccc(S(=O)(=O)NCCOCCOCCNC(=O)NCCCCNC(=O)NCCOCCOCCNS(=O)(=O)c2ccc(O[C@H]3c4cc(Cl)cc(C#N)c4C[C@@H]3N3CCNCC3)c(F)c2)cc1F [Example 43, 3-[2-(2-[2-[(4-[[(1S,2S)-6-Chloro-4-cyano-2-(piperazin-1-yl)-2,3-dihydro-1H-inden-1-yl]oxy]-3-fluorobenzene)sulfonamido]ethoxy]ethoxy)ethyl]-1-[4-([[2-(2-[2-[(4-[[(1S,2S)-6-chloro-4-cyano-2-(piperazin-1-yl)-2,3-dihydro-1H-inden-1-yl]oxy]-3-fluorobenzene)sulfonamido]ethoxy]ethoxy)ethyl]carbamoyl]amino)butyl]urea; bis(trifluoroacetic acid)] |
| C (>70%) | C (NHE3 pIC50 > 7) | C (>70%) | C (NHE3 pIC50 > 7) | Cc1cc(S(=O)(=O)N2CC[C@@H](COCCOCCNC(=O)NCCCCNC(=O)NCCOCCOC[C@@H]3CCN(S(=O)(=O)c4ccc(O[C@H]5c6cc(Cl)cc(Cl)c6C[C@@H]5N(C)C)c(C)c4)C3)C2)ccc1O[C@H]1c2cc(Cl)cc(Cl)c2C[C@@H]1N(C)C [Example 45, 3-[2-(2-[[(3R)-1-[(4-[[(1S,2S)-4,6-Dichloro-2-(dimethylamino)-2,3-dihydro-1H-inden-1-yl]oxy]-3-methylbenzene)sulfonyl]pyrrolidin-3-yl]methoxy]ethoxy)ethyl]-1-[4-([[2-(2[[(3R)-1-[(4-[[(1S,2S)-4,6-dichloro-2-(dimethylamino)-2,3-dihydro-1H-inden-1-yl]oxy]-3-methylbenzene)sulfonyl]pyrrolidin-3-yl]methoxy]ethoxy)ethyl]carbamoyl]amino)butyl]urea; bis(trifluoroacetic acid)] |
